System: MV-4-11 cells
Assay: Gene expression microarray analysis (Affymetrix PrimeView) and GSEA
Format: cell-based, human
Set-up: RFU PODN (11730768_x_at) / Fold change /veh PODN (11730768_x_at) / RFU LINC00158 (11744669_a_at) / Fold change /veh LINC00158 (11744669_a_at) / RFU DUSP10 (11751237_a_at) / Fold change /veh DUSP10 (11751237_a_at) / RFU ID3 (11757404_x_at) / Fold change /veh ID3 (11757404_x_at) / RFU PLEKHG5 (11737974_s_at) / Fold change /veh PLEKHG5 (11737974_s_at) / RFU LRRC4B (11730491_at) / Fold change /veh LRRC4B (11730491_at) / RFU GIMAP4 (11747438_a_at) / Fold change /veh GIMAP4 (11747438_a_at) / RFU KRT8 (11758183_x_at) / Fold change /veh KRT8 (11758183_x_at) / RFU CNN1 (11734310_a_at) / Fold change /veh CNN1 (11734310_a_at) / RFU VPS37D (11726825_at) / Fold change /veh VPS37D (11726825_at) / RFU C10orf10 (11716522_x_at) / Fold change /veh C10orf10 (11716522_x_at) / RFU KIR2DL2 /// KIR2DL4 /// KIR2DL5A /// KIR2DL5B /// KIR2DS1 /// KIR2DS2 /// KIR2DS3 /// KIR2DS4 /// KIR3DL3 /// KIR3DL3 /// KIR3DS1 (11738374_at) / Fold change /veh KIR2DL2 /// KIR2DL4 /// KIR2DL5A /// KIR2DL5B /// KIR2DS1 /// KIR2DS2 /// KIR2DS3 /// KIR2DS4 /// KIR3DL3 /// KIR3DL3 /// KIR3DS1 (11738374_at) / RFU C1QL1 (11718748_at) / Fold change /veh C1QL1 (11718748_at) / RFU TMPRSS4 (11747572_a_at) / Fold change /veh TMPRSS4 (11747572_a_at) / RFU HAMP (11756126_x_at) / Fold change /veh HAMP (11756126_x_at) / RFU RNFT2 (11725882_a_at) / Fold change /veh RNFT2 (11725882_a_at) / RFU NR4A2 (11747474_a_at) / Fold change /veh NR4A2 (11747474_a_at) / RFU ABCC12 (11746883_a_at) / Fold change /veh ABCC12 (11746883_a_at) / RFU TMEM136 (11760407_x_at) / Fold change /veh TMEM136 (11760407_x_at) / RFU CLDN22 /// WWC2 (11732394_at) / Fold change /veh CLDN22 /// WWC2 (11732394_at) / RFU HLA-DPB1 (11760878_x_at) / Fold change /veh HLA-DPB1 (11760878_x_at) / RFU SPINT1 (11716480_a_at) / Fold change /veh SPINT1 (11716480_a_at) / RFU GAP43 (11754022_s_at) / Fold change /veh GAP43 (11754022_s_at) / RFU A4GNT (11735810_at) / Fold change /veh A4GNT (11735810_at) / RFU PRB3 (11715151_x_at) / Fold change /veh PRB3 (11715151_x_at) / RFU TUBB4B (11761932_at) / Fold change /veh TUBB4B (11761932_at) / RFU CAPN14 (11732068_a_at) / Fold change /veh CAPN14 (11732068_a_at) / RFU TMCC2 (11721928_a_at) / Fold change /veh TMCC2 (11721928_a_at) / RFU IRGQ (11745062_a_at) / Fold change /veh IRGQ (11745062_a_at) / RFU FAM174B (11720279_a_at) / Fold change /veh FAM174B (11720279_a_at) / RFU TMPRSS4 (11748680_a_at) / Fold change /veh TMPRSS4 (11748680_a_at) / RFU FAM212B (11763350_a_at) / Fold change /veh FAM212B (11763350_a_at) / RFU PLEKHG5 (11743358_a_at) / Fold change /veh PLEKHG5 (11743358_a_at) / RFU ZSCAN30 (11745921_a_at) / Fold change /veh ZSCAN30 (11745921_a_at) / RFU CMKLR1 (11741424_a_at) / Fold change /veh CMKLR1 (11741424_a_at) / RFU LOC101060620 /// MAPK8IP1 (11723275_at) / Fold change /veh LOC101060620 /// MAPK8IP1 (11723275_at) / RFU SPTSSB (11747773_x_at) / Fold change /veh SPTSSB (11747773_x_at) / RFU PRSS12 (11739890_at) / Fold change /veh PRSS12 (11739890_at) / RFU BIN1 (11741810_x_at) / Fold change /veh BIN1 (11741810_x_at) / RFU WNT11 (11732464_a_at) / Fold change /veh WNT11 (11732464_a_at) / RFU C10orf10 (11716521_a_at) / Fold change /veh C10orf10 (11716521_a_at) / RFU C5orf56 (11738089_at) / Fold change /veh C5orf56 (11738089_at) / RFU CYB561 (11721691_x_at) / Fold change /veh CYB561 (11721691_x_at) / RFU ANKRD19P (11752326_a_at) / Fold change /veh ANKRD19P (11752326_a_at) / RFU OR2T12 /// OR2T33 /// OR2T8 (11738714_s_at) / Fold change /veh OR2T12 /// OR2T33 /// OR2T8 (11738714_s_at) / RFU VCAN (11748164_a_at) / Fold change /veh VCAN (11748164_a_at) / RFU JSRP1 (11732532_at) / Fold change /veh JSRP1 (11732532_at) / RFU KRTAP10-11 (11738290_x_at) / Fold change /veh KRTAP10-11 (11738290_x_at) / RFU MYO3A (11730013_a_at) / Fold change /veh MYO3A (11730013_a_at) / RFU EBF3 (11725865_a_at) / Fold change /veh EBF3 (11725865_a_at) / RFU CAMK2N1 (11719241_x_at) / Fold change /veh CAMK2N1 (11719241_x_at) / RFU C5orf56 (11738088_a_at) / Fold change /veh C5orf56 (11738088_a_at) / RFU OLFML3 (11715873_a_at) / Fold change /veh OLFML3 (11715873_a_at) / RFU LOC100653217 /// NTM (11731650_a_at) / Fold change /veh LOC100653217 /// NTM (11731650_a_at) / RFU MAPK11 (11762145_a_at) / Fold change /veh MAPK11 (11762145_a_at) / RFU FIZ1 (11724087_x_at) / Fold change /veh FIZ1 (11724087_x_at) / RFU OASL (11726364_x_at) / Fold change /veh OASL (11726364_x_at) / RFU SOX15 (11748057_x_at) / Fold change /veh SOX15 (11748057_x_at) / RFU CD79A (11719716_a_at) / Fold change /veh CD79A (11719716_a_at) / RFU HIST1H1D (11736915_at) / Fold change /veh HIST1H1D (11736915_at) / RFU CASKIN2 (11723855_a_at) / Fold change /veh CASKIN2 (11723855_a_at) / RFU LOC730098 (11760151_x_at) / Fold change /veh LOC730098 (11760151_x_at) / RFU OR4N2 (11742367_at) / Fold change /veh OR4N2 (11742367_at) / RFU PRRT2 (11749266_a_at) / Fold change /veh PRRT2 (11749266_a_at) / RFU SNX32 (11753110_a_at) / Fold change /veh SNX32 (11753110_a_at) / RFU CDHR5 (11726645_a_at) / Fold change /veh CDHR5 (11726645_a_at) / RFU RCAN1 (11760418_a_at) / Fold change /veh RCAN1 (11760418_a_at) / RFU FAM167A (11723789_a_at) / Fold change /veh FAM167A (11723789_a_at) / RFU FAM26E (11764081_at) / Fold change /veh FAM26E (11764081_at) / RFU ISYNA1 (11749810_s_at) / Fold change /veh ISYNA1 (11749810_s_at) / RFU ACY1 (11761880_at) / Fold change /veh ACY1 (11761880_at) / RFU 11764098_at / Fold change /veh 11764098_at / RFU SAMD14 (11745864_x_at) / Fold change /veh SAMD14 (11745864_x_at) / RFU NPB (11741838_a_at) / Fold change /veh NPB (11741838_a_at) / RFU TMPRSS6 (11731388_a_at) / Fold change /veh TMPRSS6 (11731388_a_at) / RFU KRTAP10-2 (11738614_at) / Fold change /veh KRTAP10-2 (11738614_at) / RFU ARHGAP8 /// PRR5-ARHGAP8 (11727945_x_at) / Fold change /veh ARHGAP8 /// PRR5-ARHGAP8 (11727945_x_at) / RFU KRTAP5-7 /// NADSYN1 (11734609_at) / Fold change /veh KRTAP5-7 /// NADSYN1 (11734609_at) / RFU RASL12 (11751679_a_at) / Fold change /veh RASL12 (11751679_a_at) / RFU CDKN2B (11736163_a_at) / Fold change /veh CDKN2B (11736163_a_at) / RFU PRF1 (11729649_at) / Fold change /veh PRF1 (11729649_at) / RFU, ZNF638 /// ZNF638-IT1 / Fold change vs veh, ZNF638 /// ZNF638-IT1 / RFU, PANK3 / Fold change vs veh, PANK3 / RFU, SH3YL1 / Fold change vs veh, SH3YL1 / RFU, ZEB2 / Fold change vs veh, ZEB2 / RFU, NRIP1 / Fold change vs veh, NRIP1 / RFU, PTTG1IP / Fold change vs veh, PTTG1IP / RFU, CAPN2 / Fold change vs veh, CAPN2 / RFU, MED14 / Fold change vs veh, MED14 / RFU, SNORA58 / Fold change vs veh, SNORA58 / RFU, C1orf63 / Fold change vs veh, C1orf63 / RFU, LRRFIP1 / Fold change vs veh, LRRFIP1 / RFU, NDUFAF7 / Fold change vs veh, NDUFAF7 / RFU, SLC12A2 / Fold change vs veh, SLC12A2 / RFU, IBTK / Fold change vs veh, IBTK / RFU, ESF1 / Fold change vs veh, ESF1 / Fold change vs veh, TMEM50B / RFU, TAOK1 / Fold change vs veh, TAOK1 / RFU, ACBD3 / Fold change vs veh, ACBD3 / RFU, TMA16 / Fold change vs veh, TMA16 / RFU, RWDD3 / Fold change vs veh, RWDD3 / RFU, BCAT1 / Fold change vs veh, BCAT1 / RFU, EDEM3 / Fold change vs veh, EDEM3 / RFU, TMEM33 / Fold change vs veh, TMEM33 / RFU, WDR75 / Fold change vs veh, WDR75 / RFU, AHCTF1 / Fold change vs veh, AHCTF1 / RFU, TFRC / Fold change vs veh, TFRC / RFU, ZDHHC17 / Fold change vs veh, ZDHHC17 / RFU, NOM1 / Fold change vs veh, NOM1 / RFU, ARL8B / Fold change vs veh, ARL8B / RFU, ZBTB11 / Fold change vs veh, ZBTB11 / RFU, TAMM41 / Fold change vs veh, TAMM41 / RFU, KIAA1704 /// LOC100996395 / Fold change vs veh, KIAA1704 /// LOC100996395 / RFU, ING1 / Fold change vs veh, ING1 / RFU, TRMT61B / Fold change vs veh, TRMT61B / RFU, FUBP3 / Fold change vs veh, FUBP3 / RFU, TP53 / Fold change vs veh, TP53 / RFU, TNKS2 / Fold change vs veh, TNKS2 / RFU, ZFP14 / Fold change vs veh, ZFP14 / RFU, ACTR2 / Fold change vs veh, ACTR2 / RFU, PPP3R1 / Fold change vs veh, PPP3R1 / RFU, PIK3R1 / Fold change vs veh, PIK3R1 / RFU, HNRNPA1 / Fold change vs veh, HNRNPA1 / RFU, RNF170 / Fold change vs veh, RNF170 / RFU, ZNF28 / Fold change vs veh, ZNF28 / RFU, RNGTT / Fold change vs veh, RNGTT / RFU, OGT / Fold change vs veh, OGT / RFU, BRD1 / Fold change vs veh, BRD1 / RFU, MARS / Fold change vs veh, MARS / RFU, ZNF655 / Fold change vs veh, ZNF655 / RFU, FAHD1 / Fold change vs veh, FAHD1 / RFU, BDP1 / Fold change vs veh, BDP1 / RFU, LRRCC1 / Fold change vs veh, LRRCC1 / RFU, ARID1A / Fold change vs veh, ARID1A / RFU, ZNF146 / Fold change vs veh, ZNF146 / RFU, ZNF330 / Fold change vs veh, ZNF330 / RFU, GPN3 / Fold change vs veh, GPN3 / RFU, C9orf123 / Fold change vs veh, C9orf123 / RFU, N4BP2L2 / Fold change vs veh, N4BP2L2 / RFU, ARFIP1 / Fold change vs veh, ARFIP1 / RFU, FAM179B / Fold change vs veh, FAM179B / RFU, BCL10 / Fold change vs veh, BCL10 / RFU, UHRF1BP1L / Fold change vs veh, UHRF1BP1L / RFU, BET1 / Fold change vs veh, BET1 / RFU, CNOT2 / Fold change vs veh, CNOT2 / RFU, ZNF268 / Fold change vs veh, ZNF268 / Fold change vs veh, ZNF507 / RFU, DGCR2 / Fold change vs veh, DGCR2 / RFU, WDSUB1 / Fold change vs veh, WDSUB1 / Fold change vs veh, HSP90B1 /// MIR3652 / RFU, ADSS / Fold change vs veh, ADSS / RFU, GK / Fold change vs veh, GK / RFU, ZNF148 / Fold change vs veh, ZNF148 / RFU, TAF9 / Fold change vs veh, TAF9 / RFU, SLC1A5 / Fold change vs veh, SLC1A5 / RFU, SLMO2 / Fold change vs veh, SLMO2 / RFU, ABCC4 / Fold change vs veh, ABCC4 / RFU, LOC101060439 /// RAP1B / Fold change vs veh, LOC101060439 /// RAP1B / RFU, RFX7 / Fold change vs veh, RFX7 / RFU, GTPBP10 / Fold change vs veh, GTPBP10 / RFU, CNEP1R1 / Fold change vs veh, CNEP1R1 / RFU, BIVM-ERCC5 /// ERCC5 / Fold change vs veh, BIVM-ERCC5 /// ERCC5 / RFU, ILF3 / Fold change vs veh, ILF3 / RFU 11762660_at / Fold change /veh 11762660_at / RFU VCAN (11757783_s_at) / Fold change /veh VCAN (11757783_s_at) / RFU DDX43 (11728927_at) / Fold change /veh DDX43 (11728927_at) / RFU KRT8 (11758188_x_at) / Fold change /veh KRT8 (11758188_x_at) / RFU NKD1 (11759106_at) / Fold change /veh NKD1 (11759106_at) / RFU SRD5A1 (11742802_a_at) / Fold change /veh SRD5A1 (11742802_a_at) / RFU TPSAB1 /// TPSB2 (11721975_s_at) / Fold change /veh TPSAB1 /// TPSB2 (11721975_s_at) / RFU GSTM3 (11746129_a_at) / Fold change /veh GSTM3 (11746129_a_at) / RFU IL23R (11737362_x_at) / Fold change /veh IL23R (11737362_x_at) / RFU TMEM51 (11727254_a_at) / Fold change /veh TMEM51 (11727254_a_at) / RFU PIWIL2 (11732686_x_at) / Fold change /veh PIWIL2 (11732686_x_at) / RFU ORM1 (11744905_x_at) / Fold change /veh ORM1 (11744905_x_at) / RFU CCDC152 (11743942_at) / Fold change /veh CCDC152 (11743942_at) / RFU ECM1 (11717891_a_at) / Fold change /veh ECM1 (11717891_a_at) / RFU IL23R (11748794_a_at) / Fold change /veh IL23R (11748794_a_at) / RFU TNFAIP8L3 (11732012_x_at) / Fold change /veh TNFAIP8L3 (11732012_x_at) / RFU MBOAT4 (11741988_at) / Fold change /veh MBOAT4 (11741988_at) / RFU 11764193_at / Fold change /veh 11764193_at / RFU TMEM53 (11763286_at) / Fold change /veh TMEM53 (11763286_at) / RFU MAGEB2 (11727129_at) / Fold change /veh MAGEB2 (11727129_at) / RFU TMEM200A (11744735_a_at) / Fold change /veh TMEM200A (11744735_a_at) / RFU CCDC152 (11751479_a_at) / Fold change /veh CCDC152 (11751479_a_at) / RFU FAM211A (11726209_a_at) / Fold change /veh FAM211A (11726209_a_at) / RFU RGS16 (11746705_a_at) / Fold change /veh RGS16 (11746705_a_at) / RFU VCAN (11755009_s_at) / Fold change /veh VCAN (11755009_s_at) / RFU RHOB (11743442_s_at) / Fold change /veh RHOB (11743442_s_at) / RFU RGS16 (11720943_a_at) / Fold change /veh RGS16 (11720943_a_at) / RFU RGS16 (11720944_at) / Fold change /veh RGS16 (11720944_at) / RFU, VPS4B / Fold change vs veh, VPS4B / RFU, CREB1 / Fold change vs veh, CREB1 / RFU, DNAJC13 / Fold change vs veh, DNAJC13 / RFU, GNAQ / Fold change vs veh, GNAQ / RFU, CDK5R1 / Fold change vs veh, CDK5R1 / RFU, ZRANB3 / Fold change vs veh, ZRANB3 / RFU, CUL4A / Fold change vs veh, CUL4A / RFU, CCNY / Fold change vs veh, CCNY / RFU, UFL1 / Fold change vs veh, UFL1 / RFU, COG3 / Fold change vs veh, COG3 / RFU, DIAPH2 / Fold change vs veh, DIAPH2 / RFU, SKA2 / Fold change vs veh, SKA2 / RFU, AFF3 / Fold change vs veh, AFF3 / RFU, LMF1 / Fold change vs veh, LMF1 / RFU, IPO11 / Fold change vs veh, IPO11 / RFU, DFFB / Fold change vs veh, DFFB / RFU, FOXP1 / Fold change vs veh, FOXP1 / RFU, CARD8 / Fold change vs veh, CARD8 / RFU, STRN3 / Fold change vs veh, STRN3 / RFU, ADK / Fold change vs veh, ADK / RFU, RASSF2 / Fold change vs veh, RASSF2 / RFU, WIPF1 / Fold change vs veh, WIPF1 / RFU, LARP1B / Fold change vs veh, LARP1B / RFU, RASA1 / Fold change vs veh, RASA1 / RFU, RB1 / Fold change vs veh, RB1 / RFU, PPFIA1 / Fold change vs veh, PPFIA1 / RFU, MAT2A / Fold change vs veh, MAT2A / RFU, CCT5 / Fold change vs veh, CCT5 / RFU, WDR92 / Fold change vs veh, WDR92 / RFU, CUX1 / Fold change vs veh, CUX1 / RFU, TTC7A / Fold change vs veh, TTC7A / RFU, TMEM135 / Fold change vs veh, TMEM135 / RFU, DEPTOR / Fold change vs veh, DEPTOR / RFU, CPM / Fold change vs veh, CPM / RFU, DNAJB6 / Fold change vs veh, DNAJB6 / RFU, CACNA2D3 / Fold change vs veh, CACNA2D3 / RFU, DTX4 / Fold change vs veh, DTX4 / RFU, TFCP2 / Fold change vs veh, TFCP2 / RFU, GMCL1 /// GMCL1P1 / Fold change vs veh, GMCL1 /// GMCL1P1 / RFU, AEBP2 / Fold change vs veh, AEBP2 / RFU, SNHG1 /// SNORD22 /// SNORD25 /// SNORD26 /// SNORD27 /// SNORD28 /// SNORD29 /// SNORD31 / Fold change vs veh, SNHG1 /// SNORD22 /// SNORD25 /// SNORD26 /// SNORD27 /// SNORD28 /// SNORD29 /// SNORD31 / Fold change (Aza/veh), C12orf56 (ProbeSet 11735607_a_at) / Fold change (ACY-1035/veh), C12orf56 (ProbeSet 11735607_a_at) / Fold change (Aza/veh), FGFR1OP (ProbeSet 11751329_s_at) / Fold change (ACY-1035/veh), FGFR1OP (ProbeSet 11751329_s_at) / Fold change (Aza/veh), VPS36 (ProbeSet 11739960_a_at) / Fold change (ACY-1035/veh), VPS36 (ProbeSet 11739960_a_at) / RFU SYPL1 (11715823_x_at) / Fold change /veh SYPL1 (11715823_x_at) / RFU IGFBP7 (11715501_s_at) / Fold change /veh IGFBP7 (11715501_s_at) / RFU REEP3 (11722064_at) / Fold change /veh REEP3 (11722064_at) / RFU IGLL1 (11728026_x_at) / Fold change /veh IGLL1 (11728026_x_at): dose or concentration left out as unconfirmed
Conditions: MV-4-11 cells, 48 hours

SMILES: Nc1ncn([C@@H]2O[C@H](CO)[C@@H](O)[C@H]2O)c(=O)n1 [azacitidine]
- Fold change /veh SOX15 (11748057_x_at): 1.06

— PMC5218480 (PLoS ONE, 2017)
